Measurements published in ChEMBL document CHEMBL3885881, “DrugMatrix”.

Species: Rattus norvegicus
Assay: DrugMatrix - Regimen: Daily Repeat
Type: toxicity, organism-based, Sprague-Dawley
Parameters: regimen Daily Repeat, gender Male, age 6-8 weeks
Conditions: in vivo, po, route oral GAVAGE, vehicle .5 % CMC; for ABSOLUTE BASOPHIL / ABSOLUTE EOSINOPHIL / ABSOLUTE LYMPHOCYTE / ABSOLUTE MONOCYTE / ABSOLUTE SEGMENTED NEUTROPHIL / BASOPHIL / EOSINOPHIL / ERYTHROCYTE COUNT / HEMATOCRIT / HEMOGLOBIN / LEUKOCYTE COUNT / LYMPHOCYTE / MEAN CORPUSCULAR HEMOGLOBIN / MEAN CORPUSCULAR HEMOGLOBIN CONCENTRATION / MEAN CORPUSCULAR VOLUME / MONOCYTE / NEUTROPHIL / NUCLEATED RED BLOOD CELLS / PLATELET COUNT: tissue Blood; for ALANINE AMINOTRANSFERASE / ALBUMIN / ALKALINE PHOSPHATASE / ASPARTATE AMINOTRANSFERASE / BLOOD UREA NITROGEN / CARBON DIOXIDE / CHLORIDE / CHOLESTEROL / CREATINE PHOSPHOKINASE / CREATININE / GLUCOSE / LACTATE DEHYDROGENASE / LIPASE / PHOSPHORUS / POTASSIUM / SODIUM / TOTAL BILIRUBIN / TOTAL PROTEIN / URIC ACID: tissue Plasma
[1] = 88 mg/kg, 72 h, dose level Low, time 3 day
[2] = 88 mg/kg, 120 h, dose level Low, time 5 day
[3] = 750 mg/kg, 72 h, dose level High, time 3 day
[4] = 750 mg/kg, 120 h, dose level High, time 5 day

CCC1(c2ccccc2)C(=O)NCNC1=O [PRIMIDONE]
ABSOLUTE BASOPHIL [1]: 0 CELLS/uL | ABSOLUTE EOSINOPHIL [1]: 207.67 CELLS/uL | ABSOLUTE LYMPHOCYTE [1]: 14556.33 CELLS/uL | ABSOLUTE MONOCYTE [1]: 206 CELLS/uL | ABSOLUTE SEGMENTED NEUTROPHIL [1]: 1063.33 CELLS/uL | BASOPHIL [1]: 0% | EOSINOPHIL [1]: 1.33% | ERYTHROCYTE COUNT [1]: 5.49 x10E6/uL | HEMATOCRIT [1]: 34.53% | HEMOGLOBIN [1]: 13.03 G/DL | LEUKOCYTE COUNT [1]: 16.03 x10E3/uL | LYMPHOCYTE [1]: 90.67% | MEAN CORPUSCULAR HEMOGLOBIN [1]: 23.87 pg | MEAN CORPUSCULAR HEMOGLOBIN CONCENTRATION [1]: 37.8 G/DL | MEAN CORPUSCULAR VOLUME [1]: 63.07 fL | MONOCYTE [1]: 1.33% | NEUTROPHIL [1]: 6.67% | NUCLEATED RED BLOOD CELLS [1]: 0 /100WBC | PLATELET COUNT [1]: 1338 x10E3/uL | ALANINE AMINOTRANSFERASE [1]: 44.67 u/L | ALBUMIN [1]: 4.17 G/DL | ALKALINE PHOSPHATASE [1]: 329.33 u/L | ASPARTATE AMINOTRANSFERASE [1]: 77.33 u/L | BLOOD UREA NITROGEN [1]: 15 mg/dL | CARBON DIOXIDE [1]: 25.33 mmol/L | CHLORIDE [1]: 105.33 MEQ/L | CHOLESTEROL [1]: 72 mg/dL | CREATINE PHOSPHOKINASE [1]: 356 u/L | CREATININE [1]: 0.16 mg/dL | GLUCOSE [1]: 157.67 mg/dL | LACTATE DEHYDROGENASE [1]: 80 u/L | LIPASE [1]: 9 u/L | PHOSPHORUS [1]: 13.8 mg/dL | POTASSIUM [1]: 6.58 MEQ/L | SODIUM [1]: 144.83 MEQ/L | TOTAL BILIRUBIN [1]: 0.2 mg/dL | TOTAL PROTEIN [1]: 5.83 G/DL | URIC ACID [1]: 1.93 mg/dL | ABSOLUTE BASOPHIL [2]: 0 CELLS/uL | ABSOLUTE EOSINOPHIL [2]: 87 CELLS/uL | ABSOLUTE LYMPHOCYTE [2]: 14869 CELLS/uL | ABSOLUTE MONOCYTE [2]: 252 CELLS/uL | ABSOLUTE SEGMENTED NEUTROPHIL [2]: 1292 CELLS/uL | BASOPHIL [2]: 0% | EOSINOPHIL [2]: 0.33% | ERYTHROCYTE COUNT [2]: 5.5 x10E6/uL | HEMATOCRIT [2]: 34.07% | HEMOGLOBIN [2]: 13.03 G/DL | LEUKOCYTE COUNT [2]: 16.5 x10E3/uL | LYMPHOCYTE [2]: 91.33% | MEAN CORPUSCULAR HEMOGLOBIN [2]: 23.67 pg | MEAN CORPUSCULAR HEMOGLOBIN CONCENTRATION [2]: 38.3 G/DL | MEAN CORPUSCULAR VOLUME [2]: 61.9 fL | MONOCYTE [2]: 1.33% | NEUTROPHIL [2]: 7% | NUCLEATED RED BLOOD CELLS [2]: 0 /100WBC | PLATELET COUNT [2]: 1298.67 x10E3/uL | ALANINE AMINOTRANSFERASE [2]: 49.67 u/L | ALBUMIN [2]: 3.93 G/DL | ALKALINE PHOSPHATASE [2]: 300.67 u/L | ASPARTATE AMINOTRANSFERASE [2]: 79.67 u/L | BLOOD UREA NITROGEN [2]: 16.67 mg/dL | CARBON DIOXIDE [2]: 27.67 mmol/L | CHLORIDE [2]: 106.67 MEQ/L | CHOLESTEROL [2]: 63.67 mg/dL | CREATINE PHOSPHOKINASE [2]: 421.67 u/L | CREATININE [2]: 0.21 mg/dL | GLUCOSE [2]: 162 mg/dL | LACTATE DEHYDROGENASE [2]: 161 u/L | LIPASE [2]: 8.67 u/L | PHOSPHORUS [2]: 13.87 mg/dL | POTASSIUM [2]: 6.54 MEQ/L | SODIUM [2]: 145.5 MEQ/L | TOTAL BILIRUBIN [2]: 0.2 mg/dL | TOTAL PROTEIN [2]: 6.03 G/DL | URIC ACID [2]: 2.03 mg/dL | ABSOLUTE BASOPHIL [3]: 0 CELLS/uL | ABSOLUTE EOSINOPHIL [3]: 107 CELLS/uL | ABSOLUTE LYMPHOCYTE [3]: 6934.67 CELLS/uL | ABSOLUTE MONOCYTE [3]: 246.33 CELLS/uL | ABSOLUTE SEGMENTED NEUTROPHIL [3]: 1312 CELLS/uL | BASOPHIL [3]: 0% | EOSINOPHIL [3]: 1% | ERYTHROCYTE COUNT [3]: 6.1 x10E6/uL | HEMATOCRIT [3]: 37.33% | HEMOGLOBIN [3]: 14.33 G/DL | LEUKOCYTE COUNT [3]: 8.6 x10E3/uL | LYMPHOCYTE [3]: 79.33% | MEAN CORPUSCULAR HEMOGLOBIN [3]: 23.6 pg | MEAN CORPUSCULAR HEMOGLOBIN CONCENTRATION [3]: 38.3 G/DL | MEAN CORPUSCULAR VOLUME [3]: 61.67 fL | MONOCYTE [3]: 3% | NEUTROPHIL [3]: 16.67% | NUCLEATED RED BLOOD CELLS [3]: 0.33 /100WBC | PLATELET COUNT [3]: 1338.67 x10E3/uL | ALANINE AMINOTRANSFERASE [3]: 48.5 u/L | ALBUMIN [3]: 4.73 G/DL | ALKALINE PHOSPHATASE [3]: 307 u/L | ASPARTATE AMINOTRANSFERASE [3]: 85 u/L | BLOOD UREA NITROGEN [3]: 15.5 mg/dL | CARBON DIOXIDE [3]: 26.33 mmol/L | CHLORIDE [3]: 107.5 MEQ/L | CHOLESTEROL [3]: 66.67 mg/dL | CREATINE PHOSPHOKINASE [3]: 138 u/L | CREATININE [3]: 0.24 mg/dL | GLUCOSE [3]: 144.33 mg/dL | LACTATE DEHYDROGENASE [3]: 137.33 u/L | LIPASE [3]: 8.5 u/L | PHOSPHORUS [3]: 10.5 mg/dL | POTASSIUM [3]: 5.94 MEQ/L | SODIUM [3]: 150.9 MEQ/L | TOTAL BILIRUBIN [3]: 0.3 mg/dL | TOTAL PROTEIN [3]: 6.2 G/DL | URIC ACID [3]: 1 mg/dL | ABSOLUTE BASOPHIL [4]: 0 CELLS/uL | ABSOLUTE EOSINOPHIL [4]: 136.67 CELLS/uL | ABSOLUTE LYMPHOCYTE [4]: 11870 CELLS/uL | ABSOLUTE MONOCYTE [4]: 38.33 CELLS/uL | ABSOLUTE SEGMENTED NEUTROPHIL [4]: 755 CELLS/uL | BASOPHIL [4]: 0% | EOSINOPHIL [4]: 1% | ERYTHROCYTE COUNT [4]: 5.98 x10E6/uL | HEMATOCRIT [4]: 37.3% | HEMOGLOBIN [4]: 13.87 G/DL | LEUKOCYTE COUNT [4]: 12.8 x10E3/uL | LYMPHOCYTE [4]: 92.67% | MEAN CORPUSCULAR HEMOGLOBIN [4]: 23.17 pg | MEAN CORPUSCULAR HEMOGLOBIN CONCENTRATION [4]: 37.17 G/DL | MEAN CORPUSCULAR VOLUME [4]: 62.37 fL | MONOCYTE [4]: 0.33% | NEUTROPHIL [4]: 6% | NUCLEATED RED BLOOD CELLS [4]: 0 /100WBC | PLATELET COUNT [4]: 1320.33 x10E3/uL | ALANINE AMINOTRANSFERASE [4]: 59.67 u/L | ALBUMIN [4]: 4.13 G/DL | ALKALINE PHOSPHATASE [4]: 421 u/L | ASPARTATE AMINOTRANSFERASE [4]: 98.33 u/L | BLOOD UREA NITROGEN [4]: 15 mg/dL | CARBON DIOXIDE [4]: 25.33 mmol/L | CHLORIDE [4]: 105.33 MEQ/L | CHOLESTEROL [4]: 68.33 mg/dL | CREATINE PHOSPHOKINASE [4]: 186.67 u/L | CREATININE [4]: 0.18 mg/dL | GLUCOSE [4]: 159.33 mg/dL | LACTATE DEHYDROGENASE [4]: 96 u/L | LIPASE [4]: 9 u/L | PHOSPHORUS [4]: 13.2 mg/dL | POTASSIUM [4]: 6.32 MEQ/L | SODIUM [4]: 146.03 MEQ/L | TOTAL BILIRUBIN [4]: 0.2 mg/dL | TOTAL PROTEIN [4]: 6.17 G/DL | URIC ACID [4]: 2.07 mg/dL
